Results published in PMC12668138, “First-in-line 3D-printed intravaginal ring for nonhormonal contraception” (Research Square, 2025).
Converted amounts (≈) assume the structure as drawn. “And” between values parts separate entries of the source, which are not always exact repeats. Equal values may be shown once. Read-outs that look alike come from different tables or passages of the source.

Columns and labels:
[1] = Saturation solubility in relevant solvents and release media; format: physicochemical; conditions: thermodynamic from solid, read-out: GML Saturation Solubility
Method: Approximately 20 mg samples of GML were weighed into microcentrifuge tubes and 100 μL of solvent (n=3) was subsequently added. Samples were vortexed and assessed visually to determine dissolution progress. As dissolution occurred, an additional 20 mg of GML was added until complete saturation was reached. All samples were then stored, protected from light, overnight to confirm complete saturation. […] The supernatant samples were diluted with MeOH and drug concentration was subsequently analyzed via LC-MS as described above.

sperm [2] = test: Sander-Cramer assay, 1:6 semen:compound, with recovery; format: cell-based, human; conditions: for MEC after recovery ± SD: 1:6 semen:compound, diluted with 1 mL inhibitor-free media, 60 mins; for MEC ± SD: 30 sec exposure, 1:6 dilution ratio (50 μL semen + 250 μL compound)
Method: (§1) Semen samples were collected from consented healthy male donors by masturbation after 2–5 days of sexual abstinence. The protocol was approved by the Eastern Virginia Medical School’s Institutional Review Board (IRB) at the Macon & Joan Brock Virginia Health Sciences, Old Dominion University. Semen analysis was performed according to WHO guidelines.[44]
(§2) The highest spermicidal dilution and minimum effective concentration (MEC) for the test compounds were determined using the modified Sander-Cramer (SCr) assay.[45] […] Briefly, 250 μL of test compounds were incubated with 50 μL of semen for 30 sec at room temperature (RT). During the incubation period, each sample was examined under a phase-contrast microscope (E600 Nikon Eclipse, Melville, MY) for the presence of motile sperm. To evaluate the protective effect of seminal plasma, 50 μL of test compounds were incubated with 50 μL of semen (1:1 dilution ratio) for 30 sec at room temperature (RT). If any motile sperm (i.e. progressive, twitching, etc.) were found within 30 seconds, then the dilution was recorded as ‘Failed’. If no motile sperm were found, the dilution was considered as ‘Pass.’ The results from 4–6 independent experiments were combined, and the highest spermicidal dilution and MEC were calculated as MEC=initialconcentration/highestspermicidaldilution and presented as Mean ± SE.
(§3) To see whether the sperm immobilizing effect of the compounds was reversible, 1 mL of warmed Ham’s F-10 media (Millipore Sigma, MA, USA) supplemented with 1% Human Serum Albumin (HSA) (Millipore Sigma, MA, USA) was added to each sample to further dilute the compound concentration and assess the reversibility of the sperm immobilization effect. Sperm were incubated for an additional 60 mins at 37°C. After this sperm “recovery” period, motility was re-evaluated with manual counting and calculated as: %SpermMotility=TotalMotileSperm/TotalMotile+immobileSperm*100.

sperm [3] = test: Modified Sander-Cramer assay, 1:1 semen:compound, with recovery; format: cell-based, human; conditions: for MEC: 30 sec exposure, 1:1 dilution ratio (50 μL semen + 50 μL compound)
Method: as §1, §2, §3

sperm [4] = test: Time-response sperm motility assay (single compounds, 1:1 dilution); format: cell-based, human
Method: A time-response experiment was conducted to assess the impact of contraceptive compounds on sperm motility at various time points following incubation. Sperm samples were incubated with varying concentrations of LA or GML (1:1 dilution ratio) for 30 secs, 10, 30, 60, and 120 minutes. Concentrations of GML were selected based on the critical micelle concentration (CMC) of 16.4 μg/mL.[43] Each sample was examined under a phase-contrast microscope, and sperm motility was assessed manually.

[5] = system: Human vaginal epithelial cells, VK2/E6E7; test: In vitro cytotoxicity, MTS assay; format: cell-based; conditions: 24 hrs
Method: Human vaginal epithelial cells, VK2/E6E7 (ATCC® CRL-2616™), were used to evaluate GML’s effect on cell viability. VK2 cells were propagated in Gibco™ Keratinocyte SFM (1×) media (Cat# 17005042, ThermoFisher Scientific, MA, USA) supplemented with 0.1 ng/mL epidermal growth factor, 50 μg/mL bovine pituitary extract, 0.4 mM CaCl2, and 1% penicillin and streptomycin (P/S; Cat# 15140–122, Gibco). Cells were incubated with varying concentrations of GML for 24 hrs at 37°C. Cell viability was assessed using CellTiter 96® AQueous Non-Radioactive Cell Proliferation (MTS) Assay (Cat# G5421, Promega, WI, USA) per manufacturer instructions.

[6] = set-up: method as in PMID 26585883; conditions: cited from earlier work
[7] = Lactic acid titration of simulated vaginal and seminal fluids (pH); format: physicochemical; conditions: for pH reached: same LA concentration (24 mM)
Method: The amount of lactic acid necessary for contraceptive efficacy was estimated by measuring solution pH. Simulated vaginal and seminal fluids, with physiologically-representative buffer capacities, were prepared as previously described by Rastogi et al.[43] Simulated vaginal fluid (SVF) was mixed with seminal fluid simulant (SFS) in a 1:5 ratio to represent potential fluid volumes during intercourse.

For `CCCCCCCCCCCC(=O)OCC(O)CO` (stereo not drawn) [GML, glycerol monolaurate], the solubility at 24 h ([1]; acetone, organic solvent or mixture) was 255.2 ± 1.74 mg/mL (≈ 930 mM), the solubility at 24 h ([1]; ethanol, organic solvent or mixture, EtOH) was 271 ± 18 mg/mL (≈ 988 mM) and the solubility at 24 h ([1]; methanol, organic solvent or mixture, MeOH) was 278 ± 45.2 mg/mL (≈ 1010 mM). For the same molecule, the solubility at 24 h ([1]; simulated vaginal fluid with 2% Solutol, pH 4.2, aqueous with cosolvent or surfactant or cyclodextrin, SVF (w/ 2% solutol)) was 3.25 ± 0.45 mg/mL (≈ 11.8 mM), the solubility at 24 h ([1]; water) was 4.48 ± 0.12 mg/mL (≈ 16.3 mM) and the “Concentration above which compound visibly precipitated” value (sperm [2]; 0.9% saline) was “above 0.2 mg/mL”. For the same molecule, the “MEC after recovery ± SD” value (sperm [2]) was 1.7 ± 0.9 mg/mL and 1.7 ± 0.9^γ mg/mL, the “MEC ± SD” value (sperm [2]) was 45 ± 5.5 mg/mL and the MEC after recovery (sperm [3]; 1:1 semen:compound, diluted with 1 mL inhibitor-free media, 60 mins) was 1.7 ± 0.9 mg/mL. For the same molecule, the MEC (sperm [3]) was 55 ± 5.8 mg/mL, the “Time to immobilize all sperm” value (sperm [4]; at 20 mg/mL, 1:1 dilution ratio) was 10 min and the “Concentration completely immobilizing sperm” value (sperm [4]; incubation 30–120 mins, 1:1 dilution ratio) was 2 mg/mL. The Concentrations considered non-cytotoxic [5] was at most 20 µg/mL, the “Concentrations significantly decreasing cell viability” value [5] was at least 200 µg/mL and the “Critical micelle concentration (CMC)” value [6] was 16.4 µg/mL.

In the case of `CC(O)C(=O)O` (stereo not drawn) [LA, lactic acid], the “LA concentration at which mixture pH reached 4.2” value ([7]; 1:5 mixture of SVF and SFS) is reported as 24 mM and 2.16 mg/mL, the pH reached ([7]; SSF alone) is reported as 3.37 and the pH reached ([7]; SVF alone) is reported as 3.67. The “MEC after recovery ± SD” value (sperm [2]) was 9 mg/mL, the “MEC ± SD” value (sperm [2]) was 9 mg/mL and the MEC (sperm [3]) was 18 mg/mL. For the same molecule, the MEC (sperm [4]; following 10 mins, persisting during 120 mins, 1:1 dilution ratio) was 10 mg/mL, the “Concentration inducing immediate sperm immobilization” value (sperm [4]; summary statement) was 10 mg/mL and the MEC (sperm [4]; within 30 sec, 1:1 dilution ratio) was 20 mg/mL.
